Data taken from patent publication US12497446B2, “Tetranectin-targeting monoclonal antibodies to fight against lethal sepsis and other pathologies” (The Feinstein Institutes For Medical Research, priority 2019, dated 2025).

Assays:
[1] = tested on: Murine macrophage-like RAW 264.7 cells; assay: Cellular HMGB1 and TN uptake; type: cell-based, mouse; details: Dynasore 8.0 μM or mAb8 60 μg/ml, 2 h
Method: Highly purified recombinant HMGB1 and TN protein were labeled with either Alexa Fluor 555 or Alexa Fluor 488 using respective labeling kit (Cat. # A30007 or Cat. # A30006, Thermo Fisher Scientific) according to the manufacturer's instructions. Murine macrophage-like RAW 264.7 cells on cover slips were incubated with unlabeled or Alexa Fluor 555-labeled HMGB1 in the absence or presence of unlabeled or Alexa Fluor 488-labeled TN at 37° C. for 2 h. An endocytosis inhibitor, Dynasore (8.0 μM), or mAb8 (60 μg/ml) were added 30 min before the addition of HMGB1 or TN. Following extensive washings with 1×PBS, cells were fixed with 4% formalin for 20 min at room temperature and mounted on the slide using Vectashield Mounting Medium for Fluorescence with DAPI (Vector Laboratories, Inc., Cat. # H-1200) for nuclei staining (blue). Endocytic uptake of Alexa Fluor 555-labeled HMGB1 (red) or Alexa Fluor 488-labeled TN (green) was visualized via Carl Zeiss fluorescence microscope. To quantitate cellular uptake of HMGB1 and TN, macrophage cultures were incubated with recombinant HMGB1 and TN either individually, or in combination, at 37° C. for 2 h. Following extensive washing, cellular levels of HMGB1 and TN were measured by Western blotting analysis with reference to a house-keeping protein, β-actin.

[2] = tested on: murine peritoneal macrophages; assay: TN/HMGB1-induced macrophage cell death (trypan blue, LDH release); type: cell-based, mouse; details: dynasore 10.0 μM, 16 h
Method: (§1) FIG. 12(A)-12(C): TN and HMGB1 cooperate to induce macrophage cell death. 12(A) Thioglycolate-elicited murine peritoneal macrophages were treated with TN (10 μg/ml) in the absence or presence of HMGB1 (0.5 μg/ml), TN-specific mAb8 (65.0 μg/ml), or dynasore (10.0 μM) for 16 h, and cell viability was assessed by trypan blue dye exclusion or LDH release assay. *, P<0.05 versus negative control; #, P<0.05 versus “+TN” or “+HMGB1” alone; &, P<0.05 versus positive control “+TN+HMGB1” group, n=6-10 per group. 12(B) Murine peritoneal macrophages were stimulated with TN (10 μg/ml) in the absence or presence of HMGB1 (1.0 μg/ml) for 16 h, and the cell-conditioned medium was assayed for ASC release by Western blotting analysis. SDS-PAGE gel indicated equivalent sampling loading. Bar graph represented average of three samples (n=3) from two independent experiments (N=2). *, P<0.05 versus negative controls (“−HMGB1−TN”); #, P<0.05 versus positive control (“+HMGB1” or “+TN” alone). 12(C) Differentiated human macrophages were stimulated with HMGB1 (1.0 μg/ml) and TN (10.0 μg/ml) in the absence or presence of TN-specific mAb (40 μg/ml) or dynasore (20.0 μM) for 16 h. Subsequently, cells were immunostained with Alexa Fluor 594-conjugated anti-ASC IgGs. Scale bars: 10 μm. Narrow arrows point to minute ASC puncta; Wide arrow points to a larger ASC speck. […]

[3] = tested on: differentiated human macrophages; assay: TN/HMGB1-induced formation of ASC foci/speck; type: cell-based; details: dynasore 20.0 μM, 16 h
Method: as §1

For O=C(N/N=C/c1ccc(O)c(O)c1)c1cc2ccccc2cc1O [dynasore], the “HMGB1-enhanced cellular uptake of TN” value [1] was “similarly attenuated”, the “TN-mediated enhancement of cellular HMGB1 uptake” value [1] was “prevented” and the “TN/HMGB1 induced cell death” value [2] was “inhibit”. For the same compound, the “TN/HMGB1 induced ASC aggregation” value [3] was “inhibit”.
